Data from patent US20170232083A1, “METHODS OF DIAGNOSIS AND TREATMENT OF CELIAC DISEASE IN CHILDREN” (priority 2014, published 2017).

Test system: PBMC (polyclonal gluten-specific T cells) of paediatric and adult CD patients
Test: IFN-γ ELISpot of PBMC after 3 day oral wheat challenge (SFU, % of maximal peptide response, dominance scores, EC50; Examples 5-6)
Format: cell-based, human
Conditions: for Cross-reactive T cell response: following wheat challenge; for IFN-γ ELISpot response: after oral wheat challenge
[1] = patient G, 11-17 yrs, cut-off 10 SFU
[2] = patient H, 11-17 yrs, cut-off 10 SFU
[3] = patient ID not given, 11-17 yrs, cut-off 10 SFU
[4] = patient ID not given, max peptide 95 SFU
[5] = patient P, 11-17 yrs, cut-off 21.6 SFU
[6] = patient Q, 11-17 yrs, cut-off 10 SFU
[7] = patient U, H, 11-17 yrs, cut-off 10 SFU
[8] = patient V, 6-10 yrs, cut-off 10 SFU
[9] = patient Y, 6-10 yrs, cut-off 10 SFU
[10] = patient eleven, 6-10 yrs, cut-off 10 SFU
[11] = patient eleven, max peptide 57 SFU
[12] = patient four, 3-5yrs, cut-off 10 SFU
[13] = patient four, max peptide 44 SFU
[14] = patient seven, 6-10 yrs, cut-off 10.5 SFU
[15] = patient ten, 3-5yrs, cut-off 10 SFU
[16] = patient three, 6-10 yrs, cut-off 10.5 SFU
[17] = patient two, 3-5yrs, cut-off 10 SFU
[18] = patient two, max peptide 60 SFU

With NPLQPEQPFPLQPQPP the “Cross-reactive T cell response” value (subject A, 11-17yrs) was 3 SFU, the “Significant response as a percentage of maximal peptide SFU” value (shortened to “Significant response as a percentage”) (subject D, 11-17yrs) was “′′ (21-40% = ′′)” and the “Cross-reactive T cell response” value (subject D, 11-17yrs) was 12 SFU. The “Significant response as a percentage” value (subject E, 11-17yrs) was “(6-10% - ^)”, the “Cross-reactive T cell response” value (subject E, 11-17yrs) was 21 SFU and the “Significant response as a percentage” value (subject F, 11-17yrs) was “′ (11-20% = ′)”. The “Cross-reactive T cell response” value (subject F, 11-17yrs) was 25 SFU, the “Cross-reactive T cell response” value (subject G, 11-17yrs) was 1 SFU and the “Significant response as a percentage” value (subject H, 11-17yrs) was “+ (>70% = +)”. The “Cross-reactive T cell response” value (subject H) was 14 SFU, the “Cross-reactive T cell response” value (subject I (3-5yrs/6-10yrs part)) was 1 SFU and the “Significant response as a percentage” value (subject J) was “′ (11-20% = ′)”. The “Cross-reactive T cell response” value (subject J (3-5yrs/6-10yrs part)) was 38 SFU, the “Significant response as a percentage” value (subject K) was “′′ (21-40% = ′′)” and the “Cross-reactive T cell response” value (subject K (3-5yrs/6-10yrs part)) was 19 SFU. The “Cross-reactive T cell response” value (subject P, 11-17yrs) was 6 SFU, the “Significant response as a percentage” value (subject Q, 11-17yrs) was “′′ (21-40% = ′′)” and the “Cross-reactive T cell response” value (subject Q, 11-17yrs) was 23 SFU. For the same sequence, the “Significant response as a percentage” value (subject T, 11-17yrs) was “′′ (21-40% = ′′)”, the “Cross-reactive T cell response” value (subject T, 11-17yrs) was 33 SFU and the “Cross-reactive T cell response” value (subject U, 11-17yrs) was 9 SFU. The “Cross-reactive T cell response” value (subject V (3-5yrs/6-10yrs part)) was 6 SFU, the “Cross-reactive T cell response” value (subject W (3-5yrs/6-10yrs part)) was 7 SFU and the “Cross-reactive T cell response” value (subject Y (3-5yrs/6-10yrs part)) was 3 SFU. For the same sequence, the “Significant response as a percentage” value (subject five) was “′′ (21-40% = ′′)”, the “Cross-reactive T cell response” value (subject five (3-5yrs/6-10yrs part)) was 14 SFU and the “Cross-reactive T cell response” value (subject nine, 11-17yrs) was 1 SFU. For the same sequence, the “Cross-reactive T cell response” value (subject seven (3-5yrs/6-10yrs part)) was 4 SFU, the “Significant response as a percentage” value (subject six) was “+ (>70% = +)” and the “Cross-reactive T cell response” value (subject six (3-5yrs/6-10yrs part)) was 13 SFU. For the same sequence, the “Significant response as a percentage” value (subject ten) was “+ (>70% = +)”, the “Cross-reactive T cell response” value (subject ten (3-5yrs/6-10yrs part)) was 11 SFU and the “Significant response as a percentage” value (subject two) was “′ (11-20% = ′)”. For the same sequence, the “Cross-reactive T cell response” value (subject two (3-5yrs/6-10yrs part)) was 10 SFU.

In the case of LPYPQPQLPYPQP, the “IFN-γ ELISpot response” value (patient A, 11-17 yrs, cut-off 10 SFU) is reported as 3 SFU, the “IFN-γ ELISpot response” value (patient E, H, 11-17 yrs, cut-off 10 SFU) is reported as 61 SFU and the “Significant response as percentage of maximal peptide SFU” value (“Significant response as percentage” below) (patient E, max peptide 224 SFU) is reported as “′′ (21-40% = ′′)”. For the same sequence, the “IFN-γ ELISpot response” value (patient F, 11-17 yrs, cut-off 10 SFU) was 120 SFU, the “Significant response as percentage” value (patient F, max peptide 178 SFU) was “′′′ (41-70% = ′′′)” and the “IFN-γ ELISpot response” value [1] was 2 SFU. The “IFN-γ ELISpot response” value (patient H (HLA-DQ2.5 homozygote), 3-5yrs, cut-off 10 SFU) was 13 SFU, the “IFN-γ ELISpot response” value [2] was 13 SFU and the “Significant response as percentage” value (patient H, max peptide 17 SFU) was “+ (>70% = +)”. For the same sequence, the “IFN-γ ELISpot response” value [3] was 49 SFU, the “Significant response as percentage” value [4] was “′′′ (41-70% = ′′′)” and the “Significant response as percentage” value (patient II, max peptide 15 SFU) was “+ (>70% = +)”. For the same sequence, the “Significant response as percentage” value (patient J, max peptide 196 SFU) was “′′ (21-40% = ′′)”, the “Significant response as percentage” value (patient K, max peptide 53 SFU) was “′′ (21-40% = ′′)” and the “Significant response as percentage” value (patient M, max peptide 48 SFU) was “′′ (21-40% = ′′)”. The “IFN-γ ELISpot response” value (patient N, 3-5yrs, cut-off 10 SFU) was 3 SFU, the “IFN-γ ELISpot response” value [5] was 17 SFU and the “IFN-γ ELISpot response” value [6] was 53 SFU. For the same sequence, the “Significant response as percentage” value (patient Q, max peptide 97 SFU) was “′′′ (41-70% = ′′′)”, the “IFN-γ ELISpot response” value [7] was 25 SFU and the “Significant response as percentage” value (patient U, max peptide 81 SFU) was “′′ (21-40% = ′′)”. For the same sequence, the “IFN-γ ELISpot response” value [8] was 18 SFU, the “Significant response as percentage” value (patient V, max peptide 35 SFU) was “′′′ (41-70% = ′′′)” and the “IFN-γ ELISpot response” value [9] was 16 SFU. The “Significant response as percentage” value (patient Y, max peptide 16 SFU) was “+ (>70% = +)”, the “IFN-γ ELISpot response” value [10] was 25 SFU and the “Significant response as percentage” value [11] was “′′′ (41-70% = ′′′)”. The “Significant response as percentage” value (patient five, max peptide 48 SFU) was “′′ (21-40% = ′′)”, the “IFN-γ ELISpot response” value [12] was 22 SFU and the “Significant response as percentage” value [13] was “′′′ (41-70% = ′′′)”. The “IFN-γ ELISpot response” value [14] was 8 SFU, the “IFN-γ ELISpot response” value [15] was 7 SFU and the “IFN-γ ELISpot response” value [16] was 75 SFU. For the same sequence, the “IFN-γ ELISpot response” value (patient twelve, 11-17 yrs, cut-off 10 SFU) was 5 SFU, the “IFN-γ ELISpot response” value [17] was 14 SFU and the “Significant response as percentage” value [18] was “′′ (21-40% = ′′)”.

FLQPEQPFPEQPEQPYPEQPEQPFPQ was tested, and the “IFN-γ ELISpot response” value [1] was 1 SFU, the “IFN-γ ELISpot response” value [2] was 6 SFU and the “IFN-γ ELISpot response” value [3] was 23 SFU. The “Significant response as percentage” value [4] was “′′ (21-40% = ′′)”, the “Significant response as percentage” value (patient J, max peptide 196 SFU) was “′ (11-20% = ′)” and the “Significant response as percentage” value (patient K, max peptide 53 SFU) was “′′ (21-40% = ′′)”. For the same sequence, the “IFN-γ ELISpot response” value [5] was 11 SFU, the “IFN-γ ELISpot response” value [6] was 18 SFU and the “Significant response as percentage” value (patient Q, max peptide 97 SFU) was “′ (11-20% = ′)”. The “IFN-γ ELISpot response” value [7] was 26 SFU, the “Significant response as percentage” value (patient U, max peptide 81 SFU) was “′′ (21-40% = ′′)” and the “IFN-γ ELISpot response” value [8] was 12 SFU. The “Significant response as percentage” value (patient V, max peptide 35 SFU) was “′′ (21-40% = ′′)”, the “IFN-γ ELISpot response” value [9] was 6 SFU and the “IFN-γ ELISpot response” value [10] was 15 SFU. For the same sequence, the “Significant response as percentage” value [11] was “′′ (21-40% = ′′)”, the “IFN-γ ELISpot response” value [12] was 10 SFU and the “Significant response as percentage” value [13] was “′′ (21-40% = ′′)”. For the same sequence, the “IFN-γ ELISpot response” value [14] was 20 SFU, the “Significant response as percentage” value (patient seven, max peptide 27 SFU) was “+ (>70% = +)” and the “IFN-γ ELISpot response” value [15] was 3 SFU. For the same sequence, the “IFN-γ ELISpot response” value [16] was 22 SFU, the “IFN-γ ELISpot response” value [17] was 12 SFU and the “Significant response as percentage” value [18] was “′ (11-20% = ′)”.
